Measured values from patent US11648254B2 (Kumquat Biosciences Inc., priority 2021, dated 2023).
Like-named read-outs stand apart in the source and are kept apart here.

Legend:
SOS1 = SOS1 (Homo sapiens (Human), UniProt Q07889); test: Ras-SOS interaction assay (HTRF); format: biochemical
[1] = test system: MIA PaCa-2 cells (K-Ras G12C); test: Ras-SOS cellular growth inhibition assay (CellTiter-Glo, 3D); format: cell-based; settings: Homo sapiens
Method in brief: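 Growth read by CellTiter-Glo luminescence about 5 days after dosing with 3-fold dilutions (9 points), added one day post-seeding. Cells: MIA PaCa-2, 3D culture on ultra-low-attachment surface, medium DMEM/Ham's F12 plus 10% FCS and 2.5% horse serum; IC50 by four-parameter fit.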

[2] = test system: NCI-H1975 cells (EGFR T790M L858R); test: EGFR-SOS cellular inhibition assay (CellTiter-Glo, 3D); format: cell-based; settings: Homo sapiens
[3] = K-RasG13D utilized, read-out: IC50 inhibition of SOS
[4] = K-RasG13D, read-out: IC50 value against SOS1
[5] = MIA PaCa-2, 120 h, MIA PaCa-2, 3D proliferation, about 5 days, read-out: Bio-Cell-Prolif-3D (MiaPaca2 IC50)
[6] = 120 h, NCI-H1975, 3D proliferation, about 5 days, read-out: Bio-Cell-Prolif-3D (H1975 IC50)
[7] = NCI-H1975, EGFR T790M L858R, read-out: IC50 in inhibiting growth of NCI-H1975 cell line
[8] = MIA PaCa-2, MIA PaCa-2, read-out: IC50 in inhibiting MIA PaCa-2 cell growth

Sequence of SOS1 (Q07889 564-1049): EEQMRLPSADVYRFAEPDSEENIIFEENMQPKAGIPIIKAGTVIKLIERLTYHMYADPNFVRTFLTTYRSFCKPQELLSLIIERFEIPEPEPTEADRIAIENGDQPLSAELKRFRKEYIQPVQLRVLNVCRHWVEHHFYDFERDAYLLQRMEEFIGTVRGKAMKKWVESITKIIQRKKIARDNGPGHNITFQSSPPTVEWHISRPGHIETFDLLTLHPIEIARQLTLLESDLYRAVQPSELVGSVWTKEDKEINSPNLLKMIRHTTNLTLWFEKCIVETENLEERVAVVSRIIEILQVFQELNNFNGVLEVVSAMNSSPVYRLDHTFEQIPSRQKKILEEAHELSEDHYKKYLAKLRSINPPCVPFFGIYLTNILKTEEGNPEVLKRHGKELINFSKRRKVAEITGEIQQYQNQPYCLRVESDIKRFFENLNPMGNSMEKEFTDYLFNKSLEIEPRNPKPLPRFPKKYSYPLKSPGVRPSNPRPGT

Compound: CC(C)N1CCC(c2cc3c(N[C@H](C)c4cccc(C(F)F)c4F)ncnc3nc2OC2COC2)CC1 [Compound 317, (R)-N-(1-(3-(difluoromethyl)-2-fluorophenyl)ethyl)-6-(1-isopropylpiperidin-4-yl)-7-(oxetan-3-yloxy)pyrido[2,3-d] pyrimidin-4-amine]
- IC50 (SOS1; [3]): < 100 nM
- IC50 (SOS1; [4]): < 50 nM
- IC50 [1, 5]: 1000 to 10000 nM
- IC50 [2, 6]: ≤ 1000 nM
- IC50 [2, 7]: < 500 nM

Compound: CCN1CCC(c2cc3c(N[C@H](C)c4cccc(C(F)F)c4F)nc(C)nc3nc2OC2CN(C)C2)CC1 [Compound 318]
- IC50 (SOS1; [3]): < 100 nM
- IC50 (SOS1; [4]): < 50 nM
- IC50 [1, 5]: ≤ 1000 nM
- IC50 [2, 6]: ≤ 1000 nM

Compound: COc1nc2nc(C)nc(N[C@H](C)c3cccc(C(F)F)c3F)c2cc1C1(C#N)CCOCC1 [Compound 320, (R)-4-(4-((1-(3-(difluoromethyl)-2-fluorophenyl)ethyl)amino)-7-methoxy-2-methylpyrido[2,3-d]pyrimidin-6-yl)tetrahydro-2H-pyran-4-carbonitrile]
- IC50 (SOS1; [3]): < 100 nM
- IC50 (SOS1; [4]): < 50 nM
- IC50 [1, 5]: ≤ 1000 nM
- IC50 [2, 6]: ≤ 1000 nM
- IC50 [2, 7]: < 500 nM

Compound: COc1nc2nc(C)nc(N[C@H](C)c3cccc(C(F)(F)C(C)(C)O)c3F)c2cc1C1CCS(=O)(=O)CC1 [Compound 321, (R)-4-(4-((1-(3-(1,1-difluoro-2-hydroxy-2-methylpropyl)-2-fluorophenyl)ethyl)amino)-7-methoxy-2-methylpyrido[2,3-d]pyrimidin-6-yl)tetrahydro-2H-thiopyran 1,1-dioxide]
- IC50 (SOS1; [3]): < 100 nM
- IC50 (SOS1; [4]): < 50 nM
- IC50 [1, 5]: ≤ 1000 nM
- IC50 [2, 6]: ≤ 1000 nM
- IC50 [2, 7]: < 500 nM

Compound: COc1nc2nc(C)nc(N[C@H](C)c3cccc(C(F)(F)C(C)(C)O)c3F)c2cc1N1CCN(C)CC1 [Compound 323, (R)-1,1-difluoro-1-(2-fluoro-3-(1-((7-methoxy-2-methyl-6-(4-methylpiperazin-1-yl)pyrido[2,3-d]pyrimidin-4-yl)amino)ethyl)phenyl)-2-methylpropan-2-ol]
- IC50 (SOS1; [3]): < 100 nM
- IC50 (SOS1; [4]): < 50 nM
- IC50 [1, 5]: ≤ 1000 nM
- IC50 [2, 6]: ≤ 1000 nM
- IC50 [2, 7]: < 500 nM

Compound: COc1nc2nc(C)nc(N[C@H](C)c3cccc(C(F)(F)C(C)(C)O)c3)c2cc1N1CCN(C)CC1 [Compound 324, (R)-1,1-difluoro-1-(3-(1-((7-methoxy-2-methyl-6-(4-methylpiperazin-1-yl)pyrido[2,3-d]pyrimidin-4-yl)amino)ethyl)phenyl)-2-methylpropan-2-ol]
- IC50 (SOS1; [3]): < 100 nM
- IC50 (SOS1; [4]): < 50 nM
- IC50 [1, 5]: ≤ 1000 nM
- IC50 [1, 8]: < 500 nM
- IC50 [2, 6]: ≤ 1000 nM
- IC50 [2, 7]: < 500 nM

Compound: COc1nc2nc(OC[C@@H]3CCCN3C)nc(N[C@H](C)c3cccc(C(F)F)c3F)c2cc1C1(C#N)CC1 [Compound 326, 1-(4-(((R)-1-(3-(difluoromethyl)-2-fluorophenyl)ethyl)amino)-7-methoxy-2-(((S)-1-methylpyrrolidin-2-yl)methoxy)pyrido[2,3-d]pyrimidin-6-yl)cyclopropane-1-carbonitrile]
- IC50 (SOS1; [3]): < 100 nM
- IC50 (SOS1; [4]): < 50 nM
- IC50 [1, 5]: ≤ 1000 nM
- IC50 [2, 6]: ≤ 1000 nM
- IC50 [2, 7]: < 500 nM

Compound: Cc1c([C@@H](C)Nc2ncnc3nc(Cl)c(N4CCS(=O)(=O)CC4)cc23)cccc1C(F)(F)F [Compound 328, (R)-4-(7-chloro-4-((1-(2-methyl-3-(trifluoromethyl)phenyl)ethyl)amino)pyrido[2,3-d]pyrimidin-6-yl)thiomorpholine 1,1-dioxide]
- IC50 (SOS1; [3]): < 100 nM
- IC50 (SOS1; [4]): < 50 nM
- IC50 [1, 5]: ≤ 1000 nM
- IC50 [1, 8]: < 500 nM
- IC50 [2, 6]: ≤ 1000 nM
- IC50 [2, 7]: < 500 nM

Compound: C[C@@H](Nc1ncnc2nc(Cl)c(N3CCS(=O)(=O)CC3)cc12)c1cccc(C(F)(F)F)c1F [Compound 330, (R)-4-(7-chloro-4-((1-(2-fluoro-3-(trifluoromethyl)phenyl)ethyl)amino)pyrido[2,3-d]pyrimidin-6-yl)thiomorpholine 1,1-dioxide]
- IC50 (SOS1; [3]): < 100 nM
- IC50 (SOS1; [4]): < 50 nM
- IC50 [1, 5]: ≤ 1000 nM
- IC50 [1, 8]: < 500 nM
- IC50 [2, 6]: ≤ 1000 nM
- IC50 [2, 7]: < 500 nM

Compound: C[C@@H](Nc1ncnc2nc(Cl)c(C3CCS(=O)(=O)CC3)cc12)c1cccc(C(F)(F)F)c1F [Compound 331, (R)-4-(7-chloro-4-((1-(2-fluoro-3-(trifluoromethyl)phenyl)ethyl)amino)pyrido[2,3-d]pyrimidin-6-yl)tetrahydro-2H-thiopyran 1,1-dioxide]
- IC50 (SOS1; [3]): < 100 nM
- IC50 (SOS1; [4]): < 50 nM
- IC50 [1, 5]: ≤ 1000 nM
- IC50 [1, 8]: < 500 nM
- IC50 [2, 6]: ≤ 1000 nM
- IC50 [2, 7]: < 500 nM

Compound: Cc1nc(N[C@H](C)c2cccc(C(F)F)c2F)c2cc(C3CCN(C)CC3)c(OCCN(C)C)nc2n1 [Compound 334, (R)-N-(1-(3-(difluoromethyl)-2-fluorophenyl)ethyl)-7-(2-(dimethylamino)ethoxy)-2-methyl-6-(1-methylpiperidin-4-yl)pyrido[2,3-d]pyrimidin-4-amine]
- IC50 (SOS1; [3]): < 100 nM
- IC50 (SOS1; [4]): < 50 nM
- IC50 [1, 8]: < 500 nM
- IC50 [2, 7]: < 500 nM

Compound: Cc1nc(N[C@H](C)c2cccc(C(F)F)c2F)c2cc(C3CCN(C(C)C)CC3)c(OC3COC3)nc2n1 [Compound 335, (R)-N-(1-(3-(difluoromethyl)-2-fluorophenyl)ethyl)-6-(1-isopropylpiperidin-4-yl)-2-methyl-7-(oxetan-3-yloxy)pyrido [2,3-d]pyrimidin-4-amine]
- IC50 (SOS1; [3]): < 100 nM
- IC50 [1, 5]: ≤ 1000 nM
- IC50 [2, 6]: ≤ 1000 nM

Compound: Cc1nc(N[C@H](C)c2cccc(C(F)F)c2F)c2cc(N3CCN(C(C)C)CC3)c(OC3COC3)nc2n1 [Compound 336, (R)-N-(1-(3-(difluoromethyl)-2-fluorophenyl)ethyl)-6-(4-isopropylpiperazin-1-yl)-2-methyl-7-(oxetan-3-yloxy)pyrido [2,3-d]pyrimidin-4-amine]
- IC50 (SOS1; [3]): < 100 nM
- IC50 (SOS1; [4]): < 50 nM
- IC50 [1, 5]: ≤ 1000 nM
- IC50 [1, 8]: < 500 nM
- IC50 [2, 6]: ≤ 1000 nM
- IC50 [2, 7]: < 500 nM

Compound: COc1nc2nc(C)nc(N[C@H](C)c3cccc(C(F)F)c3F)c2cc1C1CCN(C2CCOCC2)CC1 [Compound 337, (R)-N-(1-(3-(difluoromethyl)-2-fluorophenyl)ethyl)-7-methoxy-2-methyl-6-(1-(tetrahydro-2H-pyran-4-yl)piperidin-4-yl)pyrido[2,3-d]pyrimidin-4-amine]
- IC50 (SOS1; [3]): < 100 nM
- IC50 (SOS1; [4]): < 50 nM
- IC50 [1, 5]: ≤ 1000 nM
- IC50 [1, 8]: < 500 nM
- IC50 [2, 6]: ≤ 1000 nM
- IC50 [2, 7]: < 500 nM

Compound: COc1nc2nc(C)nc(N[C@H](C)c3cccc(C(F)F)c3F)c2cc1N1CCN(C2CCOCC2)CC1 [Compound 338, (R)-N-(1-(3-(difluoromethyl)-2-fluorophenyl)ethyl)-7-methoxy-2-methyl-6-(4-(tetrahydro-2H-pyran-4-yl)piperazin-1-yl)pyrido[2,3-d]pyrimidin-4-amine]
- IC50 (SOS1; [3]): < 100 nM
- IC50 (SOS1; [4]): < 50 nM
- IC50 [1, 5]: ≤ 1000 nM
- IC50 [2, 6]: ≤ 1000 nM
- IC50 [2, 7]: < 500 nM

Compound: Cc1nc(N[C@H](C)c2cccc(C(F)F)c2F)c2cc(C3CCN(C(C)C)CC3)c(OC3CNC3)nc2n1 [Compound 340, (R)-7-(azetidin-3-yloxy)-N-(1-(3-(difluoromethyl)-2-fluorophenyl)ethyl)-6-(1-isopropylpiperidin-4-yl)-2-methylpyrido[2,3-d]pyrimidin-4-amine]
- IC50 (SOS1; [3]): < 100 nM
- IC50 (SOS1; [4]): < 50 nM
- IC50 [1, 5]: 1000 to 10000 nM
- IC50 [2, 6]: 1000 to 10000 nM
